# Molecular target: T1, KRAS (G12D)-HiBit in AsPc-1-KRAS (G12D)-HiBit-KI cell (Homo sapiens, UniProt P01116, G12D)
# T1 construct: host or cells: AsPc-1-KRAS (G12D)-HiBit-KI cells (knock-in line)
# Experiment: G12D HiBit assay
# Assay type: cell-based
# Settings: 24 hours compound treatment, absolute DC50, read-out: Average PHA DC50
# Procedure: Day 1. Prepared the culture medium for AsPc-1-KRAS (G12D)-HiBit-KI cell (Pharmaron) using RPMI 1640 medium (Gibco, 11875093) with 10% FBS (Gibco, 10099141C) and 1% Penicillin-Streptomycin Liquid (Solarbio, P1400). Cultivated cells in T-75 flasks in a cell culture incubator (Thermo, Model: 371) at 37° C., 5% CO2. Allowed cells to reach approximately 80% confluence before splitting. Rinsed cultivated cells in T-75 flasks with 5 mL PBS (Solarbio, P1020-500). Aspirated off PBS, added 1.5 mL trypsin (Invitrogen, #25300), and incubated at 37° C. for approximately 5 minutes or until the cells detached. Inactivated trypsin by adding excessive serum containing medium. Harvested the cells from flask into cell culture medium and counted the cell number. Seeded AsPc-1-KRAS (G12D)-HiBit-KI cell into 384-well plate (Corning, 3570) (cell density: 5×10^3 cells/well in 50 μL medium) in RPMI 1640 medium and incubated overnight at 37° C. and 5% CO2.
# Day 2. Test compounds were dissolved at 0.3 mM in DMSO (Solarbio, D8371) as stock solution. Transferred 45 μL of stock solution to a 384-well plate (Labcyte, 001-14555). Performed 3-fold, 10-points dilution via transferring 15 μL compound into 30 μL DMSO by using TECAN liquid handler (TECAN, Freedom EVO200). The compound plates were spin at room temperature at 1,000 RPM for 1 minute (Eppendorf, 5810R). Transferred 50 nL of diluted compounds from compound source plate into the cell plate by Echo (Labcyte, 550) to achieve final concentrations of 300 nM, 100 nM, 33.3 nM, 11.1 nM, 3.7 nM, 1.23 nM, 0.41 nM, 0.14 nM, 0.046 nM and 0.015 nM, then mixed the cell plate on a plate shaker (Yoning, WZ-4) for 15 seconds at 900 rpm. After compound treatment for 24 hours, removed the plate from incubators and equilibrated at room temperature for 15 minutes. Prepared the HiBit reagent (Promega, N3040) by mixing 10 mL of Nano-Glo®-HiBiT Lytic Buffer with 200 μL of Nano-Glo®-HiBiT Lytic Substrate and 100 μL of LgBiT Protein. Added 20 μL of HiBit reagent into each well of the cell plate and spun the plates at room temperature at 1,000 RPM for 1 minute. Then shook the plates at 600 RPM at room temperature for 20 minutes using a plate shaker (Yoning, WZ-4), and read the luminescence by EnVision (PerkinElmer, 2105-0020).
# The inhibition activity was calculated using the following formula: HiBit-G12D level (%)=100%×[Luminescence(Sample)/Mean of Luminescence (HC)] where HC (high control) is obtained from cells treated with 0.1% DMSO only.
# Absolute DC50 was calculated by fitting the curve using GraphPad Prism v8.0.2 (analyis 263): Y=Bottom+(100−Bottom)/(1+10^(Log AbsoluteIC50−X)*HillSlope+log((100−Bottom)/(50−Bottom)−1)))
# The data are reported in Table 3, wherein “+++”=DC50 less than 100 nM, “++”=DC50 greater than or equal to 100 nM and less than 300 nM; “+”=DC50 greater than or equal to 300 nM.
# T1 sequence (P01116 1-188 isoform P01116-2 G12D): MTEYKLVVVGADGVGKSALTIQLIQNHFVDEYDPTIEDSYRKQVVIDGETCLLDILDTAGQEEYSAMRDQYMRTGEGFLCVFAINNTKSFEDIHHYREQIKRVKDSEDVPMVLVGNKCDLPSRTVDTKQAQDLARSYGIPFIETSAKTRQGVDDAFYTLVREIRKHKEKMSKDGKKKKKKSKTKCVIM
row,Compound,DC50
1,"C#Cc1c(F)ccc2cccc(-c3ncc4c(N5CC6CCC(C5)N6)nc(OC[C@@]56CCCN5[C@H](COC(=O)N5CCC(OCC7CCN(Cc8cccc9c8n(C)c(=O)n9C8CCC(=O)NC8=O)CC7)CC5)CC6)nc4c3F)c12 (stereo partly drawn) [Compound 62, [(3S,8S)-8-[[4-(3,8-Diazabicyclo[3.2.1]octan-3-yl)-7-(8-ethynyl-7-fluoro-1-naphthyl) 8-fluoro-pyrido[4,3-d]pyrimidin-2-yl]oxymethyl]-1,2,3,5,6,7-hexahydropyrrolizin-3-yl]methyl4-[[1-[[1-(2,6-dioxo-3-piperidyl)-3-methyl-2-oxo-benzimidazol-4-yl]methyl]-4-piperidyl]methoxy]piperidine-1-carboxylate]",< 100 nM
2,"C#Cc1c(F)ccc2cccc(-c3ncc4c(N5CC6CCC(C5)N6)nc(OC[C@@]56CCCN5[C@H](COC(=O)N5CCC(COC7CN(Cc8cccc9c8n(C)c(=O)n9C8CCC(=O)NC8=O)C7)CC5)CC6)nc4c3F)c12 (stereo partly drawn) [Compound 63, [(3S,8S)-8-[[4-(3,8-diazabicyclo[3.2.1]octan-3-yl)-7-(8-ethynyl-7-fluoro-1-naphthyl)-8-fluoro-pyrido[4,3-d]pyrimidin-2-yl]oxymethyl]-1,2,3,5,6,7-hexahydropyrrolizin-3-yl]methyl4-[[1-[[1-(2,6-dioxo-3-piperidyl)-3-methyl-2-oxo-benzimidazol-4-yl]methyl]azetidin-3-yl]oxymethyl]piperidine-1-carboxylate]",100 to 300 nM
3,"C#Cc1c(F)ccc2cccc(-c3ncc4c(N5CC6CCC(C5)N6)nc(OC[C@@]56CCCN5[C@H](COC(=O)N5CCN(C7CCN(Cc8cccc9c8n(C)c(=O)n9C8CCC(=O)NC8=O)CC7)CC5)CC6)nc4c3F)c12 (stereo partly drawn) [Compound 64, [(3S,8S)-8-[[4-(3,8-Diazabicyclo[3.2.1]octan-3-yl)-7-(8-ethynyl-7-fluoro-1-naphthyl)-8-fluoro-pyrido[4,3-d]pyrimidin-2-yl]oxymethyl]-1,2,3,5,6,7-hexahydropyrrolizin-3-yl]methyl 4-[1-[[1-(2,6-dioxo-3-piperidyl)-3-methyl-2-oxo-benzimidazol-4-yl]methyl]-4-piperidyl]piperazine-1-carboxylate]",< 100 nM
4,"C#Cc1c(F)ccc2cccc(-c3ncc4c(N5CC6CCC(C5)N6)nc(OC[C@@]56CCCN5[C@H](COC(=O)N5CCC(N7CCC(Cc8cccc9c8n(C)c(=O)n9C8CCC(=O)NC8=O)CC7)CC5)CC6)nc4c3F)c12 (stereo partly drawn) [Compound 65, [(3S,8S)-8-[[4-(3,8-Diazabicyclo[3.2.1]octan-3-yl)-7-(8-ethynyl-7-fluoro-1-naphthyl)-8-fluoro-pyrido[4,3-d]pyrimidin-2-yl]oxymethyl]-1,2,3,5,6,7-hexahydropyrrolizin-3-yl]methyl 4-[4-[[1-(2,6-dioxo-3-piperidyl)-3-methyl-2-oxo-benzimidazol-4-yl]methyl]-1-piperidyl]piperidine-1-carboxylate]",100 to 300 nM
5,C#Cc1c(F)ccc2cccc(-c3ncc4c(N5CC6CCC(C5)N6)nc(OC[C@@]56CCCN5[C@H](COC(=O)N5CCC(N7CCC(Oc8cccc9c8n(C)c(=O)n9C8CCC(=O)NC8=O)CC7)CC5)CC6)nc4c3F)c12 (some centres unmarked) [Compound 66],< 100 nM
6,C#Cc1c(F)ccc2cccc(-c3ncc4c(N5CC6CCC(C5)N6)nc(OC[C@@]56CCCN5[C@H](COC(=O)N5CCC7(CC5)CC(CCc5ccc8c(c5)n(C)c(=O)n8C5CCC(=O)NC5=O)C7)CC6)nc4c3F)c12 (some centres unmarked) [Compound 67],< 100 nM
7,C#Cc1c(F)ccc2cccc(-c3ncc4c(N5CC6CCC(C5)N6)nc(OC[C@@]56CCCN5[C@H](COC(=O)N5CCC(COC7CCN(Cc8ccc9c(c8)n(C)c(=O)n9C8CCC(=O)NC8=O)CC7)CC5)CC6)nc4c3F)c12 (some centres unmarked) [Compound 68],< 100 nM
8,C#Cc1c(F)ccc2cccc(-c3ncc4c(N5CC6CCC(C5)N6)nc(OC[C@@]56CCCN5[C@H](COC(=O)N5CCC(CCC7CCN(Cc8ccc9c(c8)n(C)c(=O)n9C8CCC(=O)NC8=O)CC7)CC5)CC6)nc4c3F)c12 (some centres unmarked) [Compound 69],< 100 nM
9,C#Cc1c(F)ccc2cccc(-c3ncc4c(N5CC6CCC(C5)N6)nc(OC[C@@]56CCCN5[C@H](COC(=O)N5CCC(C7CCN(c8ccc9c(c8)n(C)c(=O)n9C8CCC(=O)NC8=O)CC7)CC5)CC6)nc4c3F)c12 (some centres unmarked) [Compound 70],≥ 300 nM
10,C#Cc1c(F)ccc2cccc(-c3ncc4c(N5CC6CCC(C5)N6)nc(OC[C@@]56CCCN5[C@H](COC(=O)N5CCC(OCC7CCN(Cc8ccc9c(c8)n(C)c(=O)n9C8CCC(=O)NC8=O)CC7)CC5)CC6)nc4c3F)c12 (some centres unmarked) [Compound 71],< 100 nM
11,C#Cc1c(F)ccc2cccc(-c3ncc4c(N5CC6CCC(C5)N6)nc(OC[C@@]56CCCN5[C@H](COC(=O)N5CCN(C7CCN(Cc8ccc9c(c8)n(C)c(=O)n9C8CCC(=O)NC8=O)CC7)CC5)CC6)nc4c3F)c12 (some centres unmarked) [Compound 72],100 to 300 nM
12,C#Cc1c(F)ccc2cccc(-c3ncc4c(N5CC6CCC(C5)N6)nc(OC[C@@]56CCCN5[C@H](COC(=O)N5CCC(COC7CN(Cc8ccc9c(c8)n(C)c(=O)n9C8CCC(=O)NC8=O)C7)CC5)CC6)nc4c3F)c12 (some centres unmarked) [Compound 73],< 100 nM
13,C#Cc1c(F)ccc2cccc(-c3ncc4c(N5CC6CCC(C5)N6)nc(OC[C@@]56CCCN5[C@H](COC(=O)N5CCC(OC7CN(Cc8ccc9c(c8)n(C)c(=O)n9C8CCC(=O)NC8=O)C7)CC5)CC6)nc4c3F)c12 (some centres unmarked) [Compound 74],< 100 nM
14,C#Cc1c(F)ccc2cccc(-c3ncc4c(N5CC6CCC(C5)N6)nc(OC[C@@]56CCCN5[C@H](COC(=O)N5CCC(N7CCC(Cc8ccc9c(c8)n(C)c(=O)n9C8CCC(=O)NC8=O)CC7)CC5)CC6)nc4c3F)c12 (some centres unmarked) [Compound 75],100 to 300 nM
15,C#Cc1c(F)ccc2cccc(-c3ncc4c(N5CC6CCC(C5)N6)nc(OC[C@]56CCCN5[C@@H](COC(=O)N5CCC(CN7CCC(c8ccc9c(c8)n(C)c(=O)n9C8CCC(=O)NC8=O)CC7)CC5)CC6)nc4c3F)c12 (some centres unmarked) [Compound 76],< 100 nM
16,C#Cc1c(F)ccc2cccc(-c3ncc4c(N5CC6CCC(C5)N6)nc(OC[C@]56CCCN5[C@@H](COC(=O)N5CCC(CC7CCN(Cc8cccc9c8n(C)c(=O)n9C8CCC(=O)NC8=O)CC7)CC5)CC6)nc4c3F)c12 (some centres unmarked) [Compound 77],100 to 300 nM
17,C#Cc1c(F)ccc2cccc(-c3ncc4c(N5CC6CCC(C5)N6)nc(OC[C@@]56CCCN5[C@H](COC(=O)N5CC(CN7CCC(Oc8cccc9c8n(C)c(=O)n9C8CCC(=O)NC8=O)CC7)C5)CC6)nc4c3F)c12 (some centres unmarked) [Compound 78],< 100 nM
18,C#Cc1c(F)ccc2cccc(-c3ncc4c(N5CC6CCC(C5)N6)nc(OC[C@@]56CCCN5[C@H](COC(=O)N5CCC(CN7CCC(c8cccc9c8n(C)c(=O)n9C8CCC(=O)N(C)C8=O)CC7)CC5)CC6)nc4c3F)c12 (some centres unmarked) [Compound 79],≥ 300 nM
19,C#Cc1c(F)ccc2cccc(-c3ncc4c(N5CC6CCC(C5)N6)nc(OC[C@@]56CCCN5[C@H](COC(=O)N5CC[C@H](CN7CCC(c8ccc9c(c8)n(C)c(=O)n9C8CCC(=O)NC8=O)CC7)C5)CC6)nc4c3F)c12 (some centres unmarked) [Compound 80],< 100 nM
20,"C#Cc1c(F)ccc2cccc(-c3ncc4c(N5CC6CCC(C5)N6)nc(OC[C@@]56CCCN5[C@H](COC(=O)N5CC[C@@H](CN7CCC(c8ccc9c(c8)n(C)c(=O)n9C8CCC(=O)NC8=O)CC7)C5)CC6)nc4c3F)c12 (stereo partly drawn) [Compound 81, [(3S,8S)-8-[[4-(3,8-Diazabicyclo[3.2.1]octan-3-yl)-7-(8-ethynyl-7-fluoro-1-naphthyl)-8-fluoro-pyrido[4,3-d]pyrimidin-2-yl]oxymethyl]-1,2,3,5,6,7-hexahydropyrrolizin-3-yl]methyl (3S)-3-[[4-[1-(2,6-dioxo-3-piperidyl)-3-methyl-2-oxo-benzimidazol-5-yl]-1-piperidyl]methyl]pyrrolidine-1-carboxylate]",< 100 nM

# Source: patent publication US12404285B2, “KRAS G12D proteolysis targeting chimeras” (PAQ Therapeutics Inc., priority 2022, dated 2025)
